# Values of other authors as cited in patent US3981916A, “Reduction of nitroparaffin substrates to their corresponding oximes using a silver salt catalyst” (priority 1970, dated 1976).
# Details: 25°C, aqueous solution; literature values (Table I)
row,SMILES,pKa (First Acid Dissociation Constant)
1,NCCN [Ethylenediamine],9.98
2,CN(C)C(=N)N(C)C [Tetramethylguanidine],11.50
3,NCCNCCNCCN [Triethylenetetramine],9.92

# Same assay, conditions: water
row,SMILES,pKa (First Acid Dissociation Constant)
1,"NCCCN [1,3-diaminopropane]",10.54
2,"NCCCNCCCN [3,3'-iminobispropylamine]",10.70
3,OCCNCCO [Diethanolamine],9.35
4,"CN(C)CCN(C)C [N,N,N,N',-Tetramethyl-ethylenediamine]",5.85

# The remaining lines, values ahead:
row,pKa (First Acid Dissociation Constant),SMILES
1,11.1,"NCCCCCCN [1,6-diaminohexane]"
2,9.9,NCCNCCNCCNCCN [Tetraethylenepentamine]
3,10.59,CCCCN [n-Butylamine]
4,10.40,CCCCCCN [n-Hexylamine]
